Measurements taken from patent publication EP4682145A1, “BENZOHETEROCYCLIC COMPOUND, AND PREPARATION METHOD THEREFOR AND USE THEREOF” (Cascade Pharmaceuticals, Inc., priority 2023, dated 2024).

Legend:
[1] = target: T1, human FFAR1 (GPR40) (Homo sapiens, UniProt O14842); experiment: NFAT-RE-based reporter gene activity assay (Dual-Glo luciferase) for GPR40 agonistic activity in co-transfected HEK293T cells; assay type: cell-based; conditions: 4-hour treatment; for Efficacy (%): class symbols
T1 construct: Flag; expressed in transfected cells; host or cells: HEK293T
T1 sequence (O14842 whole entry): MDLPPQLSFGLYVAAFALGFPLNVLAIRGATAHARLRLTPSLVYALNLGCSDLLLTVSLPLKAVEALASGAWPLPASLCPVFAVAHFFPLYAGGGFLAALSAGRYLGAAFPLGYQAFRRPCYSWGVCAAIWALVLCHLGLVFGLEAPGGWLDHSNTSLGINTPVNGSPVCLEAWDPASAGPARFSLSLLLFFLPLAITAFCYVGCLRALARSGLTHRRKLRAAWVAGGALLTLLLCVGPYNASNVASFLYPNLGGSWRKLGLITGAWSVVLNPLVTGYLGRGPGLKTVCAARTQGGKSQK
In short: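 Agonism read as NFAT-RE-driven firefly luciferase over Renilla control (Dual-Glo) after 4 h compound exposure, top concentration 1 µM, 10 half-log steps.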

[2] = Pharmacokinetic evaluation in ICR mice (intravenous and gavage); assay type: in vivo; conditions: for CL_obs / Vss_obs / half-life: Intravenous Administration (5 mg/kg); for bioavailability: gavage 10 mg/kg versus intravenous 5 mg/kg
Description: The bioavailability and pharmacokinetic behavior of the compounds were evaluated in mice. 6 male ICR mice with similar body weights were selected, among which 3 mice were administered a single gavage dose of 10 mg/kg, and the other 3 mice were intravenously administered a single dose of 5 mg/kg. Blood samples were collected at 5 minutes (intravenous administration), 15 minutes, 30 minutes, 1 hour, 2 hours, 4 hours, and 7 hours after administration. The plasma samples were analyzed for concentration by LCMS/MS, and the pharmacokinetic parameters of the compounds were analyzed using the PKSolver free tool and non-compartmental analysis (NCA) software.
Experimental animals: Each compound test group included 6 healthy male ICR mice, weighing 18-25 g, purchased from Charles River, which were randomly divided into 2 groups with 3 mice each.
Preparation of formulations: A certain amount of the compound was weighed and added to 2% DMSO + 15% Solutol + 83% physiological saline to form a clear solution.
Dosage: ICR mice were fasted overnight and administered the compound at a dose of 10 mg/kg via gavage or 5 mg/kg via intravenous injection. The dosing volumes for gavage and intravenous administration were 10 mL/kg and 5 mL/kg, respectively. Uniform feeding was conducted 2 hours after administration.
Sample collection: Approximately 30 µL of blood was collected from the great saphenous vein at 5 minutes (intravenous administration), 15 minutes, 30 minutes, 1 hour, 2 hours, 4 hours, and 7 hours after administration. The blood was placed into commercially available tubes containing K2-EDTA. The blood samples were then centrifuged at 4°C and 4600 rpm for 5 minutes to obtain plasma samples. All plasma samples were rapidly frozen on dry ice and maintained at -70°C until LCMS/MS analysis was performed.
Sample preparation: 10 µL of plasma sample was aspirated and precipitated with a methanol solution containing 50 nmol/L of α-naphthoflavone (internal standard). The mixture was thoroughly mixed and centrifuged at 4°C and 14000 rpm for 5 minutes. Then, 75 µL of the supernatant was mixed with 75 µL of methanol for LCMS/MS analysis.

[3] = test system: normal male C57BL6/J mice; experiment: In vivo hypoglycemia risk assay in fasted normal C57BL6/J mice; conditions: mouse, in vivo, po, 10 mg/kg
Description: The blank control group was orally administered with the vehicle control (2% DMO + 15% solutol + 83% DDW solution), with a dosing volume of 10 mL/kg. […] […] Data were expressed as mean ± standard deviation. One-way ANOVA was employed for statistical analysis, with p < 0.05 considered statistically significant.

[4] = test system: normal C57BL6/J mice; experiment: Oral glucose tolerance test (OGTT) in normal C57BL6/J mice; assay type: in vivo; conditions: 1 mg/kg gavage, single dose; for AUC 0-120 minutes: blood glucose AUC
Description: Eighteen normal male C57BL6/J mice (8-9 weeks old) were selected and randomly divided into 3 groups based on body weight and blood glucose levels, with 6 mice in each group. On the day of the OGTT, fasting was initiated at 8:30 AM. At 11:30 AM, drug interventions were administered via gavage (vehicle control, compound 14, 1 mg/kg, and compound 169, 1 mg/kg). At 1:30 PM, glucose (2 g/kg) was administered via gavage, while the blank control group received the vehicle control orally (2% DMSO + 15% solutol + 83% DDW solution) at a dosing volume of 10 mL/kg. Blood glucose measurements during the OGTT were taken at the following time points: 0, 15, 30, 60, 90, and 120 minutes after glucose administration.
Blood glucose levels were measured at 0, 15, 30, 60, and 120 minutes after glucose administration. The area under the curve (AUC) for blood glucose over 120 minutes was calculated. [formula]
Note: BG0, BG15, BG30, BG60, BG90, and BG120 represent the blood glucose levels at 0, 15, 30, 60, 90, and 120 minutes after glucose administration, respectively.
(§1) Data were expressed as mean ± standard deviation. One-way ANOVA was employed for statistical analysis, with p < 0.05 considered statistically significant.

[5] = Tissue distribution evaluation in ICR mice; assay type: in vivo; conditions: oral gavage 5 mg/kg, 1 hour after administration
Description: Experimental protocol: The tissue distribution characteristics of the compounds were evaluated in mice. 2 male ICR mice with similar body weights were selected, and the compound was administered via oral gavage at a dose of 5 mg/kg. The animals were sacrificed at 1 hour, and blood, liver, and heart were collected. After sample processing, the concentration of the compounds in each matrix was analyzed by LCMS/MS, and the average values of each group were calculated to evaluate the tissue/plasma ratio of the compounds.
Experimental animals: 2 healthy male ICR mice were purchased from Charles River.
Preparation of formulations: A certain amount of the compound was weighed and added to 2% DMSO + 15% Solutol + 83% distilled water to form a clear solution.
Dosage: ICR mice were fasted overnight and administered the compound via oral gavage at a dose of 5 mg/kg. The volume of oral gavage administration was 10 mL/kg. Uniform feeding was conducted 2 hours after administration.
Sample collection: Animals were sacrificed 1 hour after administration, and blood, liver, and heart tissues were collected. The blood was placed into commercially available tubes containing K2-EDTA. The blood samples were then centrifuged at 4°C and 4600 rpm for 5 minutes to obtain plasma samples. All plasma and tissue samples were rapidly frozen on dry ice and maintained at -70°C until LCMS/MS analysis was performed.
Sample preparation: 50 µL of the plasma sample was aspirated, precipitated with methanol, thoroughly mixed, and centrifuged at 4°C and 14000 rpm for 5 minutes. Then, 75 µL of the supernatant was mixed with 75 µL of methanol for LCMS/MS analysis. Tissue samples were homogenized using methanol. After homogenization, the mixture was centrifuged at 14,000 rpm for 5 minutes at 4°C. Subsequently, 75 µL of the supernatant was mixed with 75 µL of methanol for LCMS/MS analysis.

[6] = test system: C57BL6/J mice; experiment: In vivo pharmacodynamic assay for non-alcoholic fatty liver disease (high-fat, high-cholesterol, high-fructose diet mice); conditions: 1 mpk oral gavage once daily for 28 days
Description: Normal male C57BL6/J mice ([…]) were fed a high-fat, high-cholesterol, high-fructose diet (D09100310, Research Diets) for 20 weeks. Based on body weight and biochemical data, the mice were randomly divided into groups, with 6 mice per group. The compound 169 (0.03, 0.1, and 0.6 mg/kg) was administered via oral gavage. The positive control was MGL3196 (1 mg/kg), and the blank control group consisted of mice of the same strain and age fed a normal diet for the same duration. The blank control and model control groups were given the vehicle (15% solutol + 85% DDW), totaling 6 groups. Administration was performed once daily for 28 days. After overnight fasting, on day 29 at the experimental endpoint, blood was collected from the heart after CO2 euthanasia. Serum ALT and AST biochemical indicators were measured, and liver tissue was harvested for hepatic hydroxyproline content determination.
Blood was collected using anticoagulant-free tubes, allowed to stand at room temperature for 30 minutes, and then centrifuged at 4000 rpm for 10 minutes to separate serum, which was tested by Dian Diagnostics. Approximately 50 mg of liver tissue was taken from each mouse and tested according to the hydroxyproline assay kit method (Nanjing Jiancheng, Cat. No.: A030-2-1).
as §1

[7] = mouse, plasma, po, Gavage Administration (10 mg/kg)
[8] = mouse, plasma, po, Gavage Administration (10 mg/kg), read-out: AUC0-7 h
[9] = male, ICR, mouse, plasma, po, Gavage Administration (10 mg/kg)

SMILES	EC50 [1] [nM]	Efficacy (%) [1]	CL_obs [2] [mL/min/kg]	Vss_obs [2] [L/kg]	half-life ([2]; mouse, plasma) [h]	Cmax [2, 7] [ng/mL]	Tmax [2, 7] [h]	AUC(0-t) at 7 h [2, 8] [ng·h/mL]	bioavailability ([2]; mouse, plasma, po) [%]	other results
COc1cccc(N2CCC(c3oc4cc([C@@H](CC(=O)O)C5CC5)ccc4c3-c3cccc(C(C)(C)C)c3)CC2)c1 [Compound 12]	10 to 100	†† (150 ≥ Efficacy (%) > 100)	1.9	0.52	5.02	6580	2	38000	44.6	
COc1ccc(Cl)cc1C(=O)NCCc1ccc(S(=O)(=O)NC(=O)NC2CCCCC2)cc1 [Glibenclamide, reference compound]										AUC0-120 minutes (mmol*min) [3]: 492±50.30** mmol*min
COc1cccc(N2CCC(c3oc4cc([C@@H](CC(=O)O)C5CC5)ccc4c3-c3ccc(C(C)(C)C)cc3)CC2)c1 [Compound 14]	10 to 100	††† (Efficacy (%) > 150)								Blood Glucose ([4]; 0 minutes after glucose (2 g/kg)): 7.58 ± 0.59 mmol/L; Blood Glucose ([4]; 15 minutes after glucose (2 g/kg)): 11.08 ± 2.04 mmol/L; Blood Glucose ([4]; 30 minutes after glucose (2 g/kg)): 9.17 ± 1.37 mmol/L; Blood Glucose ([4]; 60 minutes after glucose (2 g/kg)): 7.6 ± 1.34 mmol/L; Blood Glucose ([4]; 90 minutes after glucose (2 g/kg)): 6.52 ± 2 mmol/L; Blood Glucose ([4]; 120 minutes after glucose (2 g/kg)): 5.87 ± 1.13 mmol/L; AUC 0-120 minutes ([4]; 1 mg/kg): 941±62.00; AUC 0-120 minutes ([4]; listed as compound 14, 1 mg/kg): significantly reduced
COc1ccc(F)c(N2CCC(c3oc4cc([C@@H](CC(=O)O)C5CC5)ccc4c3-c3cccc(C(C)(C)C)c3)CC2)c1 [Compound 166]	10 to 100	†† (150 ≥ Efficacy (%) > 100)	1.6	0.668	6.7	4950	4	48100	48	
COc1cccc(N2CCC(c3oc4cc([C@@H](CC(=O)O)C5CC5)ccc4c3-c3cnn(C(C)(C)C)c3)CC2)c1 [Compound 38]	10 to 100	††† (Efficacy (%) > 150)	2.3	0.405	2.41	8600	2	55400	77.4	
COc1ccc(F)c(N2CCC(c3oc4cc([C@@H](CC(=O)O)C5CC5)ccc4c3-c3cnn(C(C)(C)C)c3)CC2)c1 [Compound 89]	100 to 500	†† (150 ≥ Efficacy (%) > 100)	1.3	0.546						half-life ([2]; male, ICR, mouse, plasma): 5.46 h; bioavailability ([2]; male, ICR, mouse, plasma, oral): 73.7%; Cmax [2, 9]: 11100 ng/mL; Tmax [2, 9]: 2 h; AUC(0-t) ([2]; male, ICR, mouse, plasma, po, Gavage Administration (10 mg/kg), read-out: AUC0-7 h): 92200 ng·h/mL
COc1ccc(F)c(N2CCC(c3oc4cc(C(CC(=O)O)C5CC5)ccc4c3-c3cccc(C(C)(C)C)c3)CC2)c1 (stereo not shown) [Compound 165]	100 to 500	††† (Efficacy (%) > 150)								Plasma Concentration (ng/mL) or Tissue Concentration (ng/g): Blood [5]: 842 ng/mL; Plasma Concentration (ng/mL) or Tissue Concentration (ng/g): Heart [5]: 418 ng/g; Plasma Concentration (ng/mL) or Tissue Concentration (ng/g): Liver [5]: 1548 ng/g; Plasma Concentration (ng/mL) or Tissue Concentration (ng/g): Plasma [5]: 1290 ng/mL
CC(C)c1cc(Oc2c(Cl)cc(-n3nc(C#N)c(=O)[nH]c3=O)cc2Cl)n[nH]c1=O [MGL3196, reference compound]										Hepatic Hydroxyproline ([6]; liver): 173.63 ± 32.06 µg/g; Total Liver Hydroxyproline (µg/liver) ([6]; liver): 313.58±98.24 µg/liver; ALT (U/L) ([6]; serum): 140±63.06 U/L; AST (U/L) ([6]; serum): 242±67.42 U/L
COc1ccc(F)c(N2CCC(c3oc4cc(C(CC(=O)O)C5CC5)ccc4c3-c3ccc(C(C)(C)C)cc3)CC2)c1 (stereo not shown) [Compound 168]	100 to 500	††† (Efficacy (%) > 150)	2.1	0.494	3.9	3470	3	15400	24	Plasma Concentration (ng/mL) or Tissue Concentration (ng/g): Blood [5]: 936 ng/mL; Plasma Concentration (ng/mL) or Tissue Concentration (ng/g): Heart [5]: 485 ng/g; Plasma Concentration (ng/mL) or Tissue Concentration (ng/g): Liver [5]: 1923 ng/g; Plasma Concentration (ng/mL) or Tissue Concentration (ng/g): Plasma [5]: 1550 ng/mL
